Measurements reported in PMC9536713, “Synthesis and Preclinical Evaluation of ^177Lu-Labeled Radiohybrid PSMA Ligands for Endoradiotherapy of Prostate Cancer” (Journal of Nuclear Medicine, 2022).
Like-named read-outs stand apart in the source and are kept apart here.

Assays:
[1] = set-up: method as in earlier work; conditions: patients; cited from earlier work
PSMA = target: T1, PSMA (Homo sapiens, UniProt Q04609); test: Competitive binding (IC50) on LNCaP cells against ([125I]IBA)KuE
T1 construct: endogenous in cells; host or cells: LNCaP cells
Experimental: (§1) Competitive binding studies were determined on LNCaP cells (1.5 × 10^5 cells in 0.25 mL/well) after incubation at 4°C for 1 h, using (((S)-1-carboxy-5-(4-([^125I]iodo)benzamido)pentyl)carbamoyl)-L-glutamic acid ([^125I]IBA)KuE; 0.2 nM/well) as the reference radioligand (n = 3). Internalization studies of the radiolabeled ligands (1.0 nM/well) were performed on LNCaP cells (1.25 × 10^5 cells in 0.25 mL/well) at 37°C for 1 h and accompanied by ([^125I]IBA)KuE (0.2 nM/well) as a reference. Data were corrected for nonspecific binding and normalized to the specific internalization observed for the reference (n = 3), as previously published ([8]).

[2] = patients; cited from earlier work
LNCaP tumor xenografts [3] = system: LNCaP tumor xenografts; set-up: method as in PMID 30136051; conditions: 24 h after injection, cited from earlier work
PSMA (LNCaP cells) = target: T2, PSMA (LNCaP cells) (Homo sapiens, UniProt Q04609); test: PSMA-mediated internalization into LNCaP cells; format: cell-based; conditions: 1 h, 37°C, 1.0 nM/well, n = 3
T2 construct: endogenous in cells; host or cells: LNCaP cells
Experimental: as §1

[4] = target: T3, human serum albumin (HSA) (Homo sapiens, UniProt P02768); test: Binding to HSA by albumin-mediated size-exclusion chromatography (AMSEC), apparent molecular weight; format: in vitro ADME; conditions: HSA buffer at physiologic concentration as mobile phase, room temperature, window 2.1-70.2 kDa
T3 construct: purchased Biowest
Experimental: Binding of ^177Lu-labeled ligands to HSA was assessed by albumin-mediated size-exclusion chromatography (AMSEC), a novel method that has recently been developed by our group to determine the apparent molecular weight (AMW) of a compound in the presence of HSA. A dedicated and detailed description of the AMSEC method will be published elsewhere to cover the context and the development process of this method in its entirety. Briefly, a gel filtration size-exclusion column (Superdex 75 Increase 10/300 GL; fractionation range, 70–3 kDa; GE Healthcare) was calibrated as recommended by the manufacturer using a commercially available set of proteins (Gel Filtration LMW Calibration Kit; GE Healthcare). AMSEC experiments were performed by injection of the various radioligands using an HSA buffer at physiologic concentration (Biowest) as the mobile phase at room temperature. Depending on the strength of the HSA/ligand interaction during the chromatographic procedure, an injected radioligand (1.0 MBq, 10–20 GBq/μmol) can show a reduced retention time that correlates to AMWs higher than the actual, physical, molecular weight (the latter being for all investigated ligands < 2 kDa, and thus below the column fractionation range). The stronger this interaction, the longer the mean time the ligand is bound to HSA during the chromatographic process and the faster the ligand is eluted from the column. By means of calibration, the retention time can be translated into a ligand-specific AMW (expressed in kDa) as a parameter allowing quantification of the extent of HSA binding. The detection window ranges between 2.1 kDa (cutoff value, determined by [^18F]fluoride; no HSA interaction) and 70.2 kDa (experimental molecular weight of HSA; maximum HSA interaction). [^177Lu]Lu-rhPSMA-7.3 served as an internal standard during AMSEC studies (30.4 ± 0.5 kDa; n = 10).

[5] = set-up: method as in PMID 34531260; conditions: patients; cited from earlier work
LNCaP tumor xenografts [6] = test: Biodistribution and small-animal SPECT/CT in LNCaP tumor-bearing mice, 24 h after injection; format: in vivo, male CB-17 SCID mice
Experimental: All animal experiments were conducted in accordance with general animal welfare regulations in Germany (German animal protection act, as amended on May 18, 2018, article 141 G, version March 29, 2017, I 626, approval 55.2-1-54-2532-71-13) and the institutional guidelines for the care and use of animals. LNCaP tumor xenografts were established in 6- to 8-wk-old male CB-17 SCID mice as described previously ([8]).
The ^177Lu-labeled PSMA ligands (2–5 MBq; 0.1 nmol) were injected under isoflurane anesthesia into the tail vein of mice, which were euthanized 24 h after injection (n = 4–5). Selected organs were removed, weighed, and measured in a γ-counter. All rhPSMA ligands were evaluated during the same period (first quarter of 2020), whereas ^177Lu-labeled PSMA-617 and PSMA I&T ([17]) were assessed in 2016, using the identical cell line, mouse model, and experimental procedure.
Static images of ^177Lu-labeled ligands in euthanized mice were recorded 24 h after injection directly after blood collection, with an acquisition time of 45 min using a high-energy, general-purpose rat-and-mouse collimator and a stepwise multiplanar bed movement. For imaging studies, a VECTor4 small-animal SPECT/PET/optical imaging/CT device from MILabs was applied. Data were reconstructed using MILabs.Rec software (version 10.02) and PMOD software (version 4.0; PMOD Technologies LLC). After imaging, the mice underwent biodistribution studies.

[7] = Lipophilicity, n-octanol/phosphate-buffered saline distribution (log D7.4); format: physicochemical; conditions: pH 7.4, n = 6
Experimental: Approximately 1 MBq of the ^177Lu-labeled PSMA ligand was dissolved in 1 mL of a 1:1 mixture (v/v) of phosphate-buffered saline (pH 7.4) and n-octanol (n = 6). After vigorous mixing of the suspension for 3 min, the vial was centrifuged at 15,000g for 3 min, and 100-μL aliquots of both layers were measured in a γ-counter. Finally, the ratio of the radioactivity detected in the n-octanol sample and the phosphate-buffered saline buffer was calculated and expressed as distribution ratio log D7.4.

[8] = LNCaP tumor-bearing SCID mice, identical conditions
[9] = LNCaP tumor-bearing mice, from previously published data
[10] = 24 h after injection, LNCaP tumor-bearing mice
[11] = male, CB-17 SCID, mouse, in vivo, 24 h
[12] = 24 h after injection, LNCaP tumor-bearing SCID mice, mean ± SD, n = 4-5

T3 sequence (P02768 25-609): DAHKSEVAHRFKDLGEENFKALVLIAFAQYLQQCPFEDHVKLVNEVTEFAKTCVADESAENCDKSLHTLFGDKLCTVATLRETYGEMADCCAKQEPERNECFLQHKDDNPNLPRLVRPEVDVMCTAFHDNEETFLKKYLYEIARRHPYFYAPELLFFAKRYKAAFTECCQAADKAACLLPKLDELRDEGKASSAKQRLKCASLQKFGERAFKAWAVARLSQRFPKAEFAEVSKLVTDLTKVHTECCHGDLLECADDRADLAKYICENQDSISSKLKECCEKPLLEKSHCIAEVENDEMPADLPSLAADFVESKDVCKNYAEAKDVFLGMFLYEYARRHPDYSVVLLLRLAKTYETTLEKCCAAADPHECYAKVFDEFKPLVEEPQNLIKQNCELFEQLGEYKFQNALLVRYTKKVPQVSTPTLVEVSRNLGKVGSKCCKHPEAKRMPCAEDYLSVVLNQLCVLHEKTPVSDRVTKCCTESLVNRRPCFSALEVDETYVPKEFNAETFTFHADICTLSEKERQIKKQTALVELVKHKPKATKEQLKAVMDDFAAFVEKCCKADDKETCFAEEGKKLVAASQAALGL
T1 sequence (Q04609 whole entry): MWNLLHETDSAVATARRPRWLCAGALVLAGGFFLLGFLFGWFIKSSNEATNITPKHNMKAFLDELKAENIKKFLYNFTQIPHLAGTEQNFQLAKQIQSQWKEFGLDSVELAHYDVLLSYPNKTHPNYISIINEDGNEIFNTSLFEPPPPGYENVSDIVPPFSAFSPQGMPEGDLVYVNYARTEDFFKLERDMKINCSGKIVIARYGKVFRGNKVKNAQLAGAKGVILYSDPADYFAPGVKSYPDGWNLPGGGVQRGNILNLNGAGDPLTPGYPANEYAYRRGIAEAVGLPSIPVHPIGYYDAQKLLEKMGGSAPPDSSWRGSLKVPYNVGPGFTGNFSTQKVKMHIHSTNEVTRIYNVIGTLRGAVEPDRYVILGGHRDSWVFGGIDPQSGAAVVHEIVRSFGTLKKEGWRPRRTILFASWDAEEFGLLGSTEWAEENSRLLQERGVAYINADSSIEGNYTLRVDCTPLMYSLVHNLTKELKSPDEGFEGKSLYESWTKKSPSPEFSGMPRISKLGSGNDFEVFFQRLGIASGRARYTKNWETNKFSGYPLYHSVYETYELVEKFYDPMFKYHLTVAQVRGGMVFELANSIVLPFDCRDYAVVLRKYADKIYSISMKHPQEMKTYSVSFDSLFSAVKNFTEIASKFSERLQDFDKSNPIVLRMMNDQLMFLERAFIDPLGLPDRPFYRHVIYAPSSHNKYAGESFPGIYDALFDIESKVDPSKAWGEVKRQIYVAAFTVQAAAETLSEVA
T2 sequence (Q04609 whole entry): as above

For `CC(C)(C)[Si]([18F])(c1ccc(C(=O)NC[C@@H](NC(=O)CC[C@@H](C(=O)O)N2CCN(CC(=O)[O-])CCN(CC(=O)[O-])CCN(CC(=O)[O-])CC2)C(=O)N[C@H](CCCCNC(=O)CCC(=O)NCCC[C@@H](NC(=O)CC[C@H](NC(=O)N[C@@H](CCC(=O)O)C(=O)O)C(=O)O)C(=O)O)C(=O)O)cc1)C(C)(C)C.[Ga+3]` [[^18F]Ga-rhPSMA-7.3], the “fold higher tumor uptake than diastereomeric mixture [18F]Ga-rhPSMA-7” value [1] is listed as 1.6 fold, the “fold lower excretion into the bladder than diastereomeric mixture [18F]Ga-rhPSMA-7” value [1] is listed as 5 fold and the “fold lower kidney uptake than diastereomeric mixture [18F]Ga-rhPSMA-7” value [1] is listed as 1.6 fold.
In the case of `O=C([O-])CC[C@H](NC(=O)N[C@@H](CCCCNC(=O)CCCCCCC(=O)NCCCC[C@@H](NC(=O)[C@@H](Cc1ccccc1)NC(=O)[C@@H](Cc1ccc(O)c(I)c1)NC(=O)CC[C@H](C(=O)[O-])N1CCN(CC(=O)[O-])CCN(CC(=O)[O-])CCN(CC(=O)[O-])CC1)C(=O)[O-])C(=O)[O-])C(=O)[O-].[177Lu+3].[H+].[H+].[H+].[H+].[H+]` [[^177Lu]Lu-PSMA I&T], the IC50 (PSMA; LNCaP cells, 1 h, 4°C, ([125I]IBA)KuE 0.2 nM/well as reference radioligand, n = 3, read-out: PSMA binding affinity (half-maximal inhibitory concentration)) is listed as 4.2 ± 0.8 nM, the “absorbed dose to the kidney” value [2] is listed as 0.7 ± 0.2 Gy/GBq and the kidney uptake (LNCaP tumor xenografts [3]; [8]) is listed as 34.7 ± 17.2 %ID/g. For the same compound, the tumor uptake (LNCaP tumor xenografts [3]; [8]) was 4.1 ± 1.1 %ID/g, the tumor-to-blood ratio (LNCaP tumor xenografts [3]; [9]) was 408 and the tumor-to-kidney ratio (LNCaP tumor xenografts [3]; [9]) was 0.2. For the same compound, the “PSMA-mediated internalization as percentage of reference ligand ([125I]IBA)KuE” value (PSMA (LNCaP cells)) was 145% ± 14%, the “apparent molecular weight (AMW)” value [4] was 5.3 kDa and the “effective dose (tumor)” value [5] was 2.6 ± 2.4 mGy/MBq.
In the case of `O=C(O)CC[C@H](NC(=O)N[C@@H](CCCCNC(=O)[C@H](Cc1ccc2ccccc2c1)NC(=O)[C@H]1CC[C@H](CNC(=O)CN2CCN(CC(=O)O)CCN(CC(=O)O)CCN(CC(=O)O)CC2)CC1)C(=O)O)C(=O)O` [[^177Lu]Lu-PSMA-617, metal not drawn], the IC50 (PSMA) is reported as 3.3 ± 0.2 nM, the “PSMA-mediated internalization as percentage of reference ligand ([125I]IBA)KuE” value (PSMA (LNCaP cells)) is reported as 203% ± 10% and the “apparent molecular weight (AMW)” value [4] is reported as 13.7 kDa. For the same compound, the tumor-to-kidney ratio (LNCaP tumor xenografts [6]; [10]) was 5.9, the kidney uptake (LNCaP tumor xenografts [6]; [11]) was 1.4 ± 0.4 %ID/g and the tumor uptake (LNCaP tumor xenografts [6]; [11]) was 7.5 ± 0.9 %ID/g. The tumor-to-blood ratio (LNCaP tumor xenografts [6]; [11]) was 1,424.
With `CC(C)(C)[Si](F)(c1ccc(C(=O)NC[C@@H](NC(=O)CN2CCN(CC(=O)[O-])CCN(CC(=O)[O-])CCN(CC(=O)[O-])CC2)C(=O)N[C@H](CCCCNC(=O)CCC(=O)NCCC[C@@H](NC(=O)CC[C@H](NC(=O)N[C@@H](CCC(=O)O)C(=O)O)C(=O)O)C(=O)O)C(=O)O)cc1)C(C)(C)C.[177Lu+3]` [[^177Lu]Lu-rhPSMA-10.1] the “log D7.4” value [7] was −3.8, the “apparent molecular weight (AMW)” value [4] was 25.1 kDa and the “kidney uptake as percentage of that of [177Lu]Lu-rhPSMA-7.3” value (LNCaP tumor xenografts [6]; 24 h after injection) was 20%. For the same compound, the “tumor-to-blood ratio, times higher than for [177Lu]Lu-PSMA-617” value (LNCaP tumor xenografts [6]; 24 h after injection) was 8 times, the “tumor-to-blood ratio, times higher than for [177Lu]Lu-rhPSMA-7.3” value (LNCaP tumor xenografts [6]; 24 h after injection) was 3 times and the kidney uptake (LNCaP tumor xenografts [6]; [12]) was 2.0 ± 0.8 %ID/g. The tumor uptake (LNCaP tumor xenografts [6]; [12]) was 9.8 ± 0.3 %ID/g, the tumor-to-blood ratio (LNCaP tumor xenografts [6]; [10]) was 11,498 and the tumor-to-kidney ratio (LNCaP tumor xenografts [6]; [10]) was 5.7. For the same compound, the “tracer uptake in tumor of the imaged mouse” value (LNCaP tumor xenografts [6]; single mouse of SPECT/CT image, 24 h after injection, from subsequent biodistribution) was 9.4 %ID/g.
